Test results reported in the METLIN SMRT retention time set (Domingo-Almenara et al. 2019).

Assay: gradient 5% acetonitrile 3 min, to 50% in 2 min, to 85% in 15 min, held 3 min, 100 µL/min
Details: column: Zorbax Extend-C18 2.1 x 50 mm; eluents: water / acetonitrile, 0.1% formic acid
Outline: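 The system's dead and dwell volumes were 40 μL and 900 μL, with a Zorbax Extend-C18 column (2.1 × 50 mm, 1.8 μm) run at 100 μL/min in water and acetonitrile containing 0.1% formic acid each. Pure standards were analyzed in mixtures of ~100 molecules by HPLC–quadrupole time-of-flight mass spectrometry in positive and negative ionization mode. Retention time was assigned from computationally picked, manually inspected adduct peaks.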

SMILES	RP-LC retention time [s]
O=C(Cn1ccc2cc(S(=O)(=O)N3CCCCC3)ccc21)N1CCN(c2ccccn2)CC1	660
Cc1cccc(NC(=O)CSc2cc(N3CCC(C)CC3)ncn2)c1	1040
Cc1ccc(C(=O)Nc2nc(-c3ccc4c(c3)N(C)C(=O)CO4)c(C)s2)cc1	1030
Cc1ccoc1C(=O)Nc1ccc(C(N)=O)cc1	629
COCCN1CCn2cc(S(=O)(=O)Nc3cc(C)ccc3C)cc2C1=O	730
Cc1nc(-c2cc3ccccc3nc2N2CCN(c3ccccc3F)CC2)no1	711
Cc1ccn2cc(C(=O)NC3CCCCCC3)nc2c1	683
O=c1n(CC2CC2)nc2n1CCN(S(=O)(=O)c1ccccc1C(F)(F)F)C2	803
Cc1ccc(C(=O)N2CCC(CCOCC3CC3)CC2)cn1	660
CN(Cc1ccccc1)C(=O)C1CCN(S(=O)(=O)c2ccc(-c3noc(C4CC4)n3)cc2)CC1	1100
CC(=O)Nc1ccc(CCc2nc3ccc(C(=O)NCCC(C)C)cc3[nH]2)cc1	630
CC(C)c1nc2c(NC(=O)c3ccccc3)cccn2n1	860
Cc1ccc(F)c(NS(=O)(=O)c2cc3n(c2)CCN(C)C3=O)c1	696
Cc1ccc(-c2noc(-c3ccc(=O)n(CCC(C)C)n3)n2)cc1	1280
O=C1CC(c2noc(-c3ccccc3F)n2)CN1c1ccc(F)cc1 (stereo unspecified)	916
CCOC(=O)c1cc(S(=O)(=O)N2CCCC2C(=O)N2CCN(c3ccccn3)CC2)cn1C (stereo unspecified)	600
O=C(Cn1cccc1-c1nnc(C2CC2)o1)N1CCN(c2ccccc2F)CC1	872
CC1CCN(S(=O)(=O)c2ccc(-c3nnc(C(=O)NCCN4CCCCCC4)o3)cc2)CC1	726
O=C(CN1CCN(Cc2ccccc2)C1=O)NC1CC1	641
Cc1cccc(NC(=O)C2CCN(S(C)(=O)=O)c3cc(Cl)ccc3O2)c1 (stereo unspecified)	1020
CCNc1cc(N2CCC(CCC(=O)NCc3ccccc3OC)CC2)ncn1	650
CCC(C)NC(=O)N1CCN(Cc2nc3cccnc3n2-c2cc(C)cc(C)c2)CC1 (stereo unspecified)	672
CCn1ncn2cc(S(=O)(=O)NCc3ccccc3)cc2c1=O	800

SMILES	RP-LC retention time [s]
Cc1sc(NC(=O)c2ccccc2Br)nc1-c1ccc2c(c1)NC(=O)CO2	859
CCN(CC)S(=O)(=O)c1cccc(-c2nnc(-c3ccccc3OC)o2)c1	950
CCc1cc(C(=O)Nc2cc(C)ccc2OC)nc2ccnn12	1190
O=C(COCc1nnc(C(=O)Nc2cccc(Cl)c2)s1)NCCc1c[nH]c2ccccc12	930
CC(C)CNC(=O)N1CCC(c2noc(-c3ccccc3)n2)C1 (stereo unspecified)	846
Cc1cc(C(=O)NCC(O)(c2ccccc2)C(F)(F)F)no1 (stereo unspecified)	776
O=C(c1ccco1)N1CCC(n2c(-c3ccsc3)nc3cccnc32)C1 (stereo unspecified)	644
COc1ccc2c(C)c(C(=O)Nc3ccc4cn[nH]c4c3)oc2c1	794
CCOC(=O)c1noc2ncnc(NCc3ccc(OC)cc3)c12	938
COC(=O)c1ccc(C(=O)Nc2nnc(-c3ccc(Br)o3)o2)cc1	745
O=c1c2nc(-c3ccc(Cl)cc3)cn2ccn1-c1ccc(F)c(F)c1	891
CCC1Oc2ccc(S(=O)(=O)N3CCC(C(=O)N(C)c4ccc(C)cc4)CC3)cc2NC1=O (stereo unspecified)	837
CCCn1c(=O)c(C)nc2cc(-c3noc(-c4ccc(F)cc4)n3)ccc21	1200
COc1ccccc1OCc1nn2c(-c3ccccn3)nnc2s1	740
CCOc1ccc(-c2nc(CNC(=O)Nc3ccc(OC)c(OC)c3)c(C)o2)cc1	822
CCc1ccccc1NS(=O)(=O)c1ccc2c(c1)C(=O)N(CC)c1ncccc1O2	1050
COCCN1C(=O)c2ccccc2C(C(=O)Nc2ccc3c(c2)OCO3)C1c1ccc(F)cc1 (stereo unspecified)	875
CCOc1ccc(NC(=O)COc2cc(C)nc(N3CCN(c4ccccc4)CC3)n2)cc1	839
Cc1cc(C)cc(NC2C=CS(=O)(=O)C2)c1 (stereo unspecified)	760
CCOc1ccc(-c2noc(N3CCC(C(=O)N4CCN(CC)CC4)CC3)n2)cc1OC	630
Cc1ccc(Cl)cc1NC(=O)N1CCCC(C)(C(=O)NCc2ccccc2)C1 (stereo unspecified)	1040
Cc1sc(-c2ccn[nH]2)cc1NC(=O)c1ccc2nc[nH]c2c1	670
COc1cccc(C2CC(c3ccc(Cl)cc3)=NC3(CCN(C(C)=O)CC3)N2)c1O (stereo unspecified)	686

SMILES	RP-LC retention time [s]
O=C(NCc1ccccc1)c1nnc(-c2ccc(S(=O)(=O)N3CCOCC3)cc2)o1	816
COc1ccc(-c2cn3c(CC(=O)NCc4ccc(C)o4)csc3n2)cc1OC	686
CN1C(=O)c2cccnc2Sc2cc(NC(=O)C3CC3)ccc21	650
CCN1CCN(S(=O)(=O)c2cc(-c3nnc(C4CC4)o3)co2)CC1	587
CCCN(CCC)S(=O)(=O)c1ccc(Cl)c(OC)c1	1030
CC(C)Cn1cc(CCNC(=O)Nc2cccc(Cl)c2)c2cccnc21	895
NC(=O)CSc1nccn1Cc1cccs1	516
CCOc1ccc(CC(=O)N2CCC3(CC2)N=C(c2ccccc2)NO3)cc1	780
CS(=O)(=O)N1CCC(C(=O)Nc2ccc(C(F)(F)F)cc2)Oc2ccccc21 (stereo unspecified)	1030
O=C(NCCCN1CCOCC1)C(=O)Nc1ccc(Br)cc1F	625
CCCCOc1ccc(C(=O)N2CCN(c3cc(C)nc(N4CCCC4)n3)CC2)cc1	788
CCc1nc(-c2csc(S(=O)(=O)N3CCCC(C(=O)Nc4ccc(F)c(F)c4)C3)c2)no1 (stereo unspecified)	1090
Cc1ccc(S(=O)(=O)N2CCCN(c3ccc(=O)n(-c4ccccc4)n3)CC2)cc1C	912
Cc1ccc(-n2nc3c(=O)n(CCCC(=O)NCCCN4CCCC4=O)nc(C)c3c2C)cc1	683
Cc1c(-c2nnc(C(=O)NCCCN3CCOCC3)o2)oc2c(C)cccc12	696
O=C(c1cccc(Nc2c(-c3ccccc3)nc3cnccn23)c1)N1CCOCC1	652
CC(C)c1nnc(C2CCN(C(=O)c3ccc4nc[nH]c4c3)CC2)o1	545
CCCOc1ccc(CN2C[C@@H](CO)[C@H](c3ccncc3)C2)cc1OC	557
CCCCNC(=O)C(=O)NCc1n[nH]c(=O)c2ccccc12	659
Cc1cc(C)cc(NC(=O)C2CCN(S(=O)(=O)c3ccc4c(c3)CCCC(=O)N4)CC2)c1	834
CCN1CCN(c2ccc(NC(=O)c3cc(Cl)ccc3F)cn2)C1=O	747
O=C(NCc1cccs1)C1CCCN(S(=O)(=O)c2c[nH]c(C(=O)N3CCCCCC3)c2)C1 (stereo unspecified)	812
Cc1ccc(NC(=O)N2CCc3[nH]cnc3C2c2ccncc2)c(Cl)c1 (stereo unspecified)	753

SMILES	RP-LC retention time [s]
COc1ccc(C2C(C(C)=O)=C(O)C(=O)N2CCCN2CCOCC2)c(OC)c1 (stereo unspecified)	554
O=C(Cc1cccs1)Nc1nnc(-c2ccccc2Cl)s1	845
Cc1ccc(C)c(NC(=O)c2cc3c(=O)n(CC(C)C)ccc3n2C)c1	884
COc1ccc(C2Cn3nnc(-c4nc(-c5ccc(Br)cc5)no4)c3CO2)cc1 (stereo unspecified)	1260
CCCN1CCN(c2ccc(-c3nc(-c4cccc(F)c4)no3)cn2)CC1	739
Cc1noc(CNC(=O)C2CCN(C(=O)c3cc(-c4ccccc4)n[nH]3)CC2)n1	610
CSc1cccc(NC(=O)Cn2nc3n(c2=O)CCCCC3)c1	707
O=C(NC1CCCC1)C1CCc2sc(C(=O)N3CCCC3)cc2C1 (stereo unspecified)	777
COC(=O)c1ccccc1Nc1c(-c2ccc(F)cc2)nc2cnc(Br)cn12	1120
O=C(c1cccs1)N1CCCC1c1nc(-c2ccc(F)cc2F)no1 (stereo unspecified)	926
Cn1nnnc1C1CCCN(C(=O)C2CCCC2)C1 (stereo unspecified)	665
CCCN1CCN(c2ncc(C(=O)Nc3ccc(OCC)cc3)c(N)n2)CC1	617
COc1cccc(NC(=O)N2CC(C)Oc3ccc(C)cc32)c1 (stereo unspecified)	654
CCN1C(=O)C2(CCN(S(=O)(=O)c3c(C)nn(C)c3C)CC2)c2ccccc21	841
Cc1ccc(CNC2=NCCNC23CCN(S(=O)(=O)c2ccccc2C)CC3)cc1	738
CCCn1cc(S(=O)(=O)Nc2ccc(C)c(C)c2)c2cccnc21	960
COc1ccc(-c2nsc(C(=O)NCc3cccs3)c2N)cc1	866
O=C(CN1CCN(Cc2ccc(F)cc2)C1=O)NCCc1ccccc1Cl	847
CCOC(=O)c1[nH]c(C)c(C(=O)C(C)N(Cc2ccc(F)cc2)C(=O)C2CC2)c1C (stereo unspecified)	917
c1ccc(COCCc2noc(C3CN(Cc4ccncc4)C3)n2)cc1	605
Cc1cccc(S(=O)(=O)N2CCC(c3nc(C(=O)N(C)C)c(C)o3)CC2)c1	826
CCCCNC(=O)C1CCCN(c2cc(=O)n(C)c(=O)n2CC)C1 (stereo unspecified)	759
